Literature values as cited in US20240408053A1, “ENTERITIS-SUPPRESSING COMPOSITION” (KOBE GAKUIN EDUCATIONAL FOUNDATION, priority 2021, published 2024).

Conditions: blood metabolites after oral sesaminol in rats, for a short time (NPL 11); cited from earlier work

Substance | antioxidant activity relative to that of sesaminol
5″-methylated sesamin-6-catechol | approximately 1.6 times
sesaminol-6-catechol | approximately 1.6 times
